Results from US20120149576A1, “METHOD FOR CULTIVATING CROP PLANT” (SUMITOMO CHEMICAL COMPANY, LIMITED, priority 2009, published 2012).

What was measured:
[1] = tested on: recombinant tobacco line P023 leaf discs; assay: Resistance test using leaf discs on MS agar medium supplemented with saflufenacil; assay type: cell-based; conditions: for Score of adverse effects (browning or chlorosis) on leaf disc / Ratio of green area to leaf disc area (%): P023; for Score of adverse effects (browning or chlorosis) on leaf disc / Observed adverse effect on leaf discs: day 8; for Score of adverse effects (browning or chlorosis) on leaf disc: 5 plants; for Ratio of green area to leaf disc area (%): image analysis of FIG. 1, day 8; for Observed adverse effect on leaf discs: recombinant tobacco line P023
Experimental: : DNA encoding the amino acid sequence of SEQ ID NO:3; Homozygote seeds of the recombinant tobacco lines 1609soy#25 and […], which are described in EP1598423, and progeny seeds of the recombinant tobacco line P-6-1, which is also described in EP1598423, were aseptically sown on MS agar medium supplemented with 100 mg/L kanamycin and screened for plants with […] resistance. Leaf discs were prepared by cutting true leaves of the selected plants at 1 month after sowing, and placed on MS agar medium supplemented with 0.01 ppm, 0.03 ppm or 0.10 ppm saflufenacil. As negative control, seeds of wild-type SR-1 tobacco plants were aseptically sown on MS agar medium and, similarly, leaf discs were prepared by cutting true leaves of the plants at 1 month after sowing, and placed on MS agar medium supplemented with 0.01 ppm, 0.03 ppm or 0.10 ppm saflufenacil. […] The leaf discs were prepared from 5 individual plants for each experimental plot. Scoring evaluation was conducted according to the degrees of adverse effects manifested as browning or chlorosis. The scoring criteria are as follows: In the photograph shown in FIG. 1, the green-colored portions were color extracted using the image analysis software “Win ROOF ver.6.1.0” (MITANI Corporation) and their area was quantified. This was then divided by the area calculated by subtracting the area of the medium from the entire area of the image, thereby calculating the percentage of the area of the green-colored portions to the area of the leaf disc.

[2] = tested on: recombinant tobacco lines 1609soy#17 and #25, 1584soy#16, P023, and 35S-2; assay: Resistance test using a spreader: tobacco; assay type: in vivo; conditions: spray application with automatic spreader; about two weeks later; homozygotes of 1609soy#17, #25, 1584soy#16, P023, 35S-2
Source text: Homozygote seeds of the recombinant tobacco lines 1609soy#17 and #25, 1584soy#16, […], and 35S-2, which are described in EP1598423, are aseptically sown on MS agar medium. Subsequently, the germinated individuals are transferred to culture pots charged with Kureha soil (Kureha Chemicals) and acclimated to the outdoor environment in the phytotron. They are than grown for two weeks in the phytotron. As negative control, seeds of wild-type SR-1 tobacco plants are aseptically sown on MS agar medium and, similarly grown in the phytotron. The plants thus obtained are subjected to the saflufenacil application test. The spray solution is prepared by dissolving saflufenacil in an appropriate solvent, adding an adjuvant, and diluting it with water. Application of the spray solution to the plants are conducted using an wheeled automatic spreader (Mamba Architect Office), by homogenously spraying 20 mL of the solution onto the seedlings of the recombinant and wild-type tobacco plants placed within a 0.9 square-meter area to which the solution is applied. About two weeks later, the susceptibility of the tested recombinant tobacco plants to saflufenacil is compared with that of the wild-type SR-1 tobacco plants to saflufenacil. […] Scoring evaluation is conducted according to the degrees of adverse effects manifested as death of individual plants, or browning or chlorosis of the leaves or stems.

[3] = tested on: recombinant soybean lines J16, J18, J26 and J28; assay: Resistance test using a spreader: soybean; assay type: in vivo; conditions: spray application as in Example 2, about two weeks later
Experimental: Seeds of the T2 generation of the recombinant soybean lines J16, […], J26 and J28, which are described in US20060009361, are aseptically sown in the culture pots charged with Kureha soil and grown for about 3 weeks in the phytotron. As negative control, seeds of a wild-type soybean (cv. Jack) are similarly grown in the phytotron. The plants thus obtained are subjected to the saflufenacil application test. The application test is conducted according to the method described above in Example 2. About two weeks later, the susceptibility of the tested recombinant soybean plants to saflufenacil is compared with that of the wild-type soybean plants (cv. Jack) to saflufenacil.

[4] = tested on: recombinant tobacco line P-6-1 (progeny) leaf discs; assay: Resistance test using leaf discs on MS agar medium supplemented with saflufenacil; assay type: cell-based; conditions: for Score of adverse effects (browning or chlorosis) on leaf disc / Ratio of green area to leaf disc area (%): P-6-1; for Score of adverse effects (browning or chlorosis) on leaf disc: 5 plants; for Ratio of green area to leaf disc area (%): image analysis of FIG. 1, day 8
Experimental: P-6-1; DNA encoding the amino acid sequence of SEQ ID NO:1 and DNA encoding the amino acid sequence of SEQ ID NO:3;
(§1) Homozygote seeds of the recombinant tobacco lines 1609soy#25 and P023, which are described in EP1598423, and progeny seeds of the recombinant tobacco line P-6-1, which is also described in EP1598423, were aseptically sown on MS agar medium supplemented with 100 mg/L kanamycin and screened for plants with kanamaycin resistance. Leaf discs were prepared by cutting true leaves of the selected plants at 1 month after sowing, and placed on MS agar medium supplemented with 0.01 ppm, 0.03 ppm or 0.10 ppm saflufenacil. As negative control, seeds of wild-type SR-1 tobacco plants were aseptically sown on MS agar medium and, similarly, leaf discs were prepared by cutting true leaves of the plants at 1 month after sowing, and placed on MS agar medium supplemented with 0.01 ppm, 0.03 ppm or 0.10 ppm saflufenacil.
(§2) The leaf discs were prepared from 5 individual plants for each experimental plot. Scoring evaluation was conducted according to the degrees of adverse effects manifested as browning or chlorosis. The scoring criteria are as follows:
(§3) In the photograph shown in FIG. 1, the green-colored portions were color extracted using the image analysis software “Win ROOF ver.6.1.0” (MITANI Corporation) and their area was quantified. This was then divided by the area calculated by subtracting the area of the medium from the entire area of the image, thereby calculating the percentage of the area of the green-colored portions to the area of the leaf disc.

[5] = tested on: wild-type SR-1 tobacco leaf discs; assay: as above; assay type: cell-based; conditions: for Score of adverse effects (browning or chlorosis) on leaf disc / Ratio of green area to leaf disc area (%): Wild-type SR-1; for Score of adverse effects (browning or chlorosis) on leaf disc / Observed adverse effect on leaf discs: day 8; for Score of adverse effects (browning or chlorosis) on leaf disc: 5 plants; for Ratio of green area to leaf disc area (%): image analysis of FIG. 1, day 8; for Observed adverse effect on leaf discs: wild-type SR-1 tobacco leaves
Experimental: as §1, §2, §3

[6] = tested on: recombinant tobacco line 1609soy#25 leaf discs; assay: as above; assay type: cell-based; conditions: for Score of adverse effects (browning or chlorosis) on leaf disc / Ratio of green area to leaf disc area (%): 1609soy#25; for Score of adverse effects (browning or chlorosis) on leaf disc / Observed adverse effect on leaf discs: day 8; for Score of adverse effects (browning or chlorosis) on leaf disc: 5 plants; for Ratio of green area to leaf disc area (%): image analysis of FIG. 1, day 8; for Observed adverse effect on leaf discs: recombinant tobacco line 1609soy#25
Experimental: 1609soy#25: DNA encoding the amino acid sequence of SEQ ID NO:1;
as §1, §2, §3

## CC(C)N(C)S(=O)(=O)NC(=O)c1cc(-n2c(=O)cc(C(F)(F)F)n(C)c2=O)c(F)cc1Cl [Saflufenacil, N′-{2-chloro-4-fluoro-5-[1,2,3,6-tetrahydro-3-methyl-2,6-dioxo-4-(trifluoromethyl)pyrimidine-1-yl]benzoyl}-N-isopropyl-N-methyl sulfamide]
[1]; saflufenacil 0.01 ppm
  Score of adverse effects (browning or chlorosis) on leaf disc: 3.0
  Ratio of green area to leaf disc area (%): 89%
[1]; saflufenacil 0.03 ppm
  Score of adverse effects (browning or chlorosis) on leaf disc: 3.0
  Ratio of green area to leaf disc area (%): 86%
[1]; saflufenacil 0.10 ppm
  Score of adverse effects (browning or chlorosis) on leaf disc: 2.0
  Ratio of green area to leaf disc area (%): 51%
[1]; 0.10 ppm
  Observed adverse effect on leaf discs: partial chlorosis
[1]; up to 0.03 ppm
  Observed adverse effect on leaf discs: no adverse effect
[2]
  Susceptibility of recombinant tobacco plants to saflufenacil compared with wild-type SR-1: lower susceptibility
[3]
  Susceptibility of recombinant soybean plants to saflufenacil compared with wild-type soybean (cv. Jack): lower susceptibility
[4]; saflufenacil 0.01 ppm, day 8
  Score of adverse effects (browning or chlorosis) on leaf disc: 3.0
[4]; saflufenacil 0.01 ppm
  Ratio of green area to leaf disc area (%): 87%
[4]; saflufenacil 0.03 ppm, day 8
  Score of adverse effects (browning or chlorosis) on leaf disc: 2.6
[4]; saflufenacil 0.03 ppm
  Ratio of green area to leaf disc area (%): 78%
[4]; saflufenacil 0.10 ppm, day 8
  Score of adverse effects (browning or chlorosis) on leaf disc: 3.0
[4]; saflufenacil 0.10 ppm
  Ratio of green area to leaf disc area (%): 83%
[4]; progeny plants of recombinant tobacco line P-6-1, 0.10 ppm, day 8
  Observed adverse effect on leaf discs: no adverse effect
[5]; saflufenacil 0.01 ppm
  Score of adverse effects (browning or chlorosis) on leaf disc: 2.0
  Ratio of green area to leaf disc area (%): 77%
[5]; saflufenacil 0.03 ppm
  Score of adverse effects (browning or chlorosis) on leaf disc: 1.0
  Ratio of green area to leaf disc area (%): 20%
[5]; saflufenacil 0.10 ppm
  Score of adverse effects (browning or chlorosis) on leaf disc: 0.2
  Ratio of green area to leaf disc area (%): 2%
[5]; 0.01 ppm
  Observed adverse effect on leaf discs: partial browning
[5]; 0.10 ppm
  Observed adverse effect on leaf discs: overall chlorosis
[6]; saflufenacil 0.01 ppm
  Score of adverse effects (browning or chlorosis) on leaf disc: 3.0
  Ratio of green area to leaf disc area (%): 85%
[6]; saflufenacil 0.03 ppm
  Score of adverse effects (browning or chlorosis) on leaf disc: 2.0
  Ratio of green area to leaf disc area (%): 80%
[6]; saflufenacil 0.10 ppm
  Score of adverse effects (browning or chlorosis) on leaf disc: 1.0
  Ratio of green area to leaf disc area (%): 8%
[6]; 0.01 ppm
  Observed adverse effect on leaf discs: no adverse effect
[6]; 0.03 ppm
  Observed adverse effect on leaf discs: partial browning
[6]; 0.10 ppm
  Observed adverse effect on leaf discs: overall browning
